# Assay results reported in BindingDB's records for doi:10.1021/jm2006222.
# Biological target: 3-phosphoinositide-dependent protein kinase 1 (Homo sapiens) (UniProt O15530)
# Experiment: Inhibition of recombinant PDK1
smiles,measurement,value
CCN1CCN(c2ccc(Nc3cc(N(C)C(=O)Nc4c(Cl)c(OC)cc(OC)c4Cl)ncn3)cc2)CC1,IC50,> 10 µM
